BigSolDB 2.1

O=C(O)CNCc1ccccc1
solubility (mole fraction)
Settings | 283.15 K | 288.15 K | 293.15 K | 298.15 K | 303.15 K | 313.15 K | 323.15 K
in 1,4-dioxane | 3.3e-05 | – | 5.5e-05 | – | 8.4e-05 | 0.00015 | 0.000211
in acetone | 7.1e-05 | – | 9.4e-05 | – | 0.000133 | 0.000165 | 0.00024
in acetonitrile | 5e-06 | – | 1.1e-05 | – | 1.7e-05 | 2.8e-05 | 4e-05
in dichloromethane | 9e-06 | 2.1e-05 | 3.4e-05 | 4.2e-05 | 5.7e-05 | – | –
in ethanol | 0.000222 | – | 0.000326 | – | 0.00043 | 0.000526 | 0.000709
in ethyl acetate | 1.1e-05 | – | 3.3e-05 | – | 6.7e-05 | 0.000102 | 0.000173
in isopropanol | 6e-05 | – | 8e-05 | – | 9.6e-05 | 0.00012 | 0.000173
in methanol | 0.00217 | – | 0.00269 | – | 0.00335 | 0.00416 | 0.0053
in n-butanol | 0.000166 | – | 0.000203 | – | 0.000262 | 0.000338 | 0.000397
in n-propanol | 0.000214 | – | 0.000266 | – | 0.000306 | 0.00037 | 0.000456
in water | 0.00909 | – | 0.0113 | – | 0.014 | 0.0169 | 0.0214
